System: hyperglycemic response to the oral administration of glucose
Assay: Inhibition of the hyperglycemic response to oral glucose in the normoglycemic mouse
Format: in vivo, Swiss albino mice
Settings: mice, administration at 3 mg/kg; reference 2-(1,2,3,4-tetrahydroxybutyl)-5-(2′,3′,4′-trihydroxybutyl)]pyrazine
Protocol: The hypoglycemic activity of the products of formula (I) was determined with respect to the hyperglycemic response to the oral administration of glucose in the normoglycemic mouse, according to the protocol described in Example 3. Swiss albino mice weighing between 22 and 26 g are left without nourishment for 2 hours. At the end of this period, the glycemia is measured and, immediately after, a dose of glucose (2 g/kg) is administered orally. Thirty minutes later, the glycemia is once again measured. The mice which respond by a hyperglycemia greater than 170 mg/dl are selected and used to detect the hypoglycemic activity of the products according to the invention. The mice thus chosen are divided into groups of at least 10 animals. Several groups receive doses of 3 to 50 mg/kg of product in a vehicle, such as water or a mixture of methylcellulose/tween and water, once daily by gastric intubation. The treatment lasts 4 days. On the 4th day, after the final treatment, the animals receive a dose of glucose (2 g/kg) and the glycemia is measured 20 to 40 minutes later. The percentage of inhibition of the hyperglycemic response to the administration of glucose is calculated with respect to the response measured in the group treated with the vehicle.

## O=C(OC[C@@H](O)[C@@H](O)[C@H](O)c1cnc(C[C@H](O)[C@H](O)COC(=O)C2CCCCC2)cn1)C1CCCCC1 [Example 1, 4,4′-O,O-Dicyclohexyloyl-2-[(1R,2S,3R)(1,2,3,4-tetrahydroxylbutyl)]-5-[(2′S,3′R)(2′,3′,4′-trihydroxybutyl)]pyrazine]
  relative activity with respect to the reference product: 149%

— patent US6818637B2, “Polyhydroxypyrazine derivatives, their preparation and the pharmaceutical compositions which comprise them” (Aventis Pharma SA, priority 1999, dated 2004)
